Data set [1] is described as follows: Apparent solubility study in phosphate buffer pH 6.8. In kind it is physicochemical. The protocol:
(§1) The injection volume differed depending on the assay. […] The method’s duration was 12 min.
(§2) Phosphate buffer at pH 6.8 was prepared according to the following description: in a 1000 mL volumetric flask, we placed 250 mL of 0.2 N potassium dihydrogen phosphate solution, then added 112 mL of 0.2 N sodium hydroxide solution, and filled the mixture up to 1000 mL with distilled water. High-quality pure water was prepared using a Direct-Q 3 UV purification system (Millipore, Molsheim, France, model Exil SA 67120).
An excess amount of raw compounds and systems (corresponding to 1.5 mg of each substance) was placed in a 10 mL glass tube; then, 2.0 mL of phosphate buffer (pH 6.8) was added and left at room temperature for 3 h.

Data set [2] is described as follows: Dissolution study, paddle apparatus, phosphate buffer pH 6.8. Conditions: phosphate buffer pH 6.8, 37 °C, 50 rpm; after one hour (plateau). The data set is classed as physicochemical. The protocol:
as §1, §2
The dissolution study was performed on the paddle apparatus (Agilent 708-DS dissolution apparatus, Santa Clara, CA, USA). The amount of the compound and systems corresponding to 7.0 mg of each plant-origin active ingredient was added to the gelatin capsule, placed in a spring used as a sinker, and then added to the dissolution medium. The vessels were filled with 500 mL of phosphate buffer, pH 6.8; the temperature was maintained at 37 °C, and the paddles were set at a stirring speed of 50 rotations per minute. The 2.0 mL samples were withdrawn at predetermined time points (5 min, 15 min, 30 min, 1 h, 2 h, 3 h, 4 h, 5 h, and 6 h) with the replacement of equal volumes of temperature-equilibrated media.

A short description of data set [3]: PAMPA BBB permeability model. In kind it is in vitro ADME. Particulars: pH 7.4. On the procedure:
as §1
The sandwich consists of two 96-well microfilter plates.

A short description of a further data set: in vitro. Conditions: PAMPA, pH 6.8. The protocol:
Concentrations of curcumin and piperine during solubility, dissolution rate, and permeability studies were measured by high-performance liquid chromatography with the DAD detector (HPLC-DAD). In this study, a Shimadzu Nexera system (Shimadzu Corp., Kyoto, Japan) was used, equipped with an SCL-40 system controller, a DGU-403 degassing unit, a LC-40B XR solvent delivery module, a SIL-40C autosampler, a CTO-40C column oven, and a SPD-M40 photodiode array detector. For the stationary phase, a Dr. Maisch ReproSil-Pur Basic-C18 100 Å column with 5 µm particle size and 250 × 4.60 mm (Dr. Maisch, Ammerbuch-Entringen, Germany) was used. The mobile phase was acetonitrile:0.1% acetic acid (85:15 v/v). The mobile phase was vacuum-filtered through a 0.45 µm nylon filter (Phenomenex, Torrance, CA, USA). The experimental conditions were as follows: 0.5 mL/min flow rate, wavelengths of 420 nm for curcumin and 340 nm for piperine, and a column temperature of 30 °C. The injection volume differed depending on the assay. […] The method’s duration was 12 min. […]
In vitro gastrointestinal (GIT) and blood–brain barrier (BBB) permeability were studied using the PAMPA (Parallel Artificial Membrane Permeability Assay) models. […] The Papp factor was calculated according to the previously reported method. […] The results were expressed as a concentration in the acceptor solution.
For orientation: In PAMPA a lipid-coated filter parts donor from acceptor wells.

These results are taken from PMC10180276, “Hot-Melt Extrusion as an Effective Technique for Obtaining an Amorphous System of Curcumin and Piperine with Improved Properties Essential for Their Better Biological Activities” (Molecules, 2023).

A word on the solubility: it is the dissolved amount per volume that the medium holds. What is called Papp is the rate of passage across a membrane or cell layer, normalised by area and donor concentration. A lower Papp goes with poor permeation.

The structures appear in SMILES notation. In brackets after ≈: the same amount, converted by molar mass.

Turning to `COc1cc(/C=C/C(=O)CC(=O)/C=C/c2ccc(O)c(OC)c2)ccc1O` [curcumin], the solubility at 3 h in data set [1] worked out at 0.1 µg/mL (≈ 0.271 µM). Further, the “curcumin dissolved, % of the dose” value in data set [2] is given as 2.54 ± 0.15%. Further, the Papp at 3 h in data set [3] was determined as 2.63 ×10⁻⁶ cm/s; in “in vitro”, 1.63 ×10⁻⁶ cm/s.
Turning to `O=C(/C=C/C=C/c1ccc2c(c1)OCO2)N1CCCCC1` [piperine], the solubility at 3 h in data set [1] is 6 ± 0.1 µg/mL (≈ 21 µM). Also, the “piperine dissolved, % of the dose” value in data set [2] came to 22.63 ± 0.67%. Moreover, the Papp at 3 h in data set [3] worked out at 57.7 ×10⁻⁶ cm/s; in the data set “in vitro” it was 8.18 ×10⁻⁶ cm/s.
